# According to patent US20210100872A1, “Pharmacological Formulation Comprising Cyclo (HIS-PRO) As Effective Ingredient For Preventing Or Treating Diabetes Mellitus” (Novmetapharma Co., Ltd., priority 2017, published 2021):
# Experiments:
# Type in all cases: in vivo, human
# [1] = Body mass index (BMI), 12-week clinical trial; details: capsule once a day, From Week 0 to Week 12
# Method: (§1) We conducted a clinical trial designed as randomized, placebo-controlled, double-blind, and two-way crossover on drug interaction in patients with type 2 diabetes mellitus. The clinical trial was conducted for 149 patients over a total of 16 weeks, in which the screening period was 2 weeks, the treatment period was 12 weeks, and the period of the evaluation of safety and follow-up was 2 weeks.
# (§2) In the screening stage, 64 subjects were selected from 149 participants, and the subjects who met the selection criteria were fasted for 2 hours before and after breakfast each day and subjected to a 2-week evaluation process of measuring and recording blood glucose levels. In the treatment stage, capsules containing placebo or CHP with different doses were randomly administered to 64 selected subjects once a day for 12 consecutive weeks.
# (§3) In the above experiment, a capsule containing CHP (cyclo-hispro) with a different dose or a placebo corresponding thereto was used, and each subject received a two-week dose (18 capsules =14 +4) at one visit and was instructed to take 1 capsule before bedtime every day. In this case, the anti-diabetic drugs and other prescribed drugs currently being used were continuously taken. Each subject was assigned at the same rate as follows and administered with a placebo or a compound with a different dose, respectively. • Administration Group A: 3 mg of CHP+23 mg of zinc—16 subjects • Administration Group B: 9 mg of CHP+23 mg of zinc—16 subjects • Administration Group C: 15 mg of CHP+23 mg of zinc—16 subjects • Administration Group D: placebo (control)—16 subjects
# The present inventors confirmed the improvement of body mass index (BMI) and the improvement of leptin resistance, and the results are shown in Tables 3 and 4.
# [2] = system: patients with type 2 diabetes mellitus; assay: Plasma leptin level (leptin resistance), 12-week clinical trial; details: Administration Group A: 3 mg of CHP+23 mg of zinc, capsule once a day; From Week 0 to Week 12
# Method: as §1, §2
# (§4) In the above experiment, a capsule containing CHP (cyclo-hispro) with a different dose or a placebo corresponding thereto was used, and each subject received a two-week dose (18 capsules =14 +4) at one visit and was instructed to take 1 capsule before bedtime every day. In this case, the anti-diabetic drugs and other prescribed drugs currently being used were continuously taken. […]
# [3] = Change in body weight, 12-week clinical trial
# Method: as §1, §2, §4
# [4] = system: patients with type 2 diabetes mellitus; assay: Change in concentration of HbA1c, 12-week clinical trial; details: for concentration of HbA1c, Average / concentration of HbA1c, Change Value, Average: capsule once a day; for concentration of HbA1c, Change Value, Average: From Week 0 to Week 12
# Method: as §1, §2, §3
# The present inventors observed the change in concentration of HbA1c during the 12-week dosing period. Since the blood glucose level measured at one time point can change due to various factors, the change in glycated hemoglobin (HbA1c) was checked for the purpose of determining the pattern of long-term glycemic control, and the results are shown in Table 1 and FIG. 1.
# [5] = Administration Group A: 3 mg of CHP+23 mg of zinc
# [6] = Administration Group B: 9 mg of CHP+23 mg of zinc
# [7] = Administration Group C: 15 mg of CHP+23 mg of zinc
smiles,measurement,setting,value
"O=C1NC(Cc2c[nH]cn2)C(=O)N2CCCC12 (centres unmarked) [CHP, cyclo(his-pro)]","body mass index (BMI), Change Value, Average",[1]; [5],−0.27 kg/m^2
same,"body mass index (BMI), Change Value, Average",[1]; [6],0.16 kg/m^2
same,"body mass index (BMI), Change Value, Average",[1]; [7],−0.28 kg/m^2
same,"plasma leptin level, Change Value, Average",[2],0.59
same,"body weight, Change Value, Average","[3]; Administration Group A: 3 mg of CHP+23 mg of zinc, capsule once a day, From Week 0 to Week 12",-0.73 kg
same,weight gain compared to the control,"[3]; all patient groups receiving CHP (3, 9, 15 mg+23 mg of zinc), 12 weeks","less than the control, or the body weight was reduced"
same,"concentration of HbA1c, Average","[4]; Administration Group A: 3 mg of CHP+23 mg of zinc, Baseline (Week 0)",8.25%
same,"concentration of HbA1c, Change Value, Average",[4]; [5],−0.21%
same,"concentration of HbA1c, Average","[4]; Administration Group B: 9 mg of CHP+23 mg of zinc, Baseline (Week 0)",8.06%
same,"concentration of HbA1c, Change Value, Average",[4]; [6],−0.17%
same,"concentration of HbA1c, Average","[4]; Administration Group C: 15 mg of CHP+23 mg of zinc, Baseline (Week 0)",8.49%
same,"concentration of HbA1c, Change Value, Average",[4]; [7],−0.43%
same,"concentration of HbA1c, Average","[4]; Administration Group C: 15 mg of CHP+23 mg of zinc, Week 12",8.08%
same,level of HbA1c over time (FIG. 1),"[4]; Administration Group C: 15 mg of CHP+23 mg of zinc, week 0 to week 12","reduced consistently until week 8, and then there was little change in the level of HbA1c between week 8 and week 12"
